# Measured values published in patent US8192962B2, “Processes for detecting toxic substances” (Daikin Industries, Ltd., priority 2001, dated 2012).
# System: Transport facilitation protein genes
# Test: DNA chip mRNA expression in yeast, transport facilitation protein genes (Table 5)
# Type: cell-based, Saccharomyces cerevisiae S288C
# Outline: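 In this screen, yeast in logarithmic growth are challenged for two hours with a toxic substance at a non-lethal inhibitory concentration. Their mRNA, converted to Cy3- or Cy5-labeled cDNA, hybridizes at 65° C. to a chip spanning every yeast gene, and expression is expressed as a ratio to untreated cells.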
structure (smiles),measurement,setting,value
"N#Cc1c(Cl)c(Cl)c(Cl)c(C#N)c1Cl [(9), 2,4,5,6-tetrachloro-1,3-benzenedicarbonitrile]",The level of expressed mRNA in the presence of chemical substance/The level of expressed mRNA in the absence of chemical substance,yeast gene YGR260W,0.3
same,The level of expressed mRNA in the presence of chemical substance/The level of expressed mRNA in the absence of chemical substance,yeast gene YGR281W,2.7
same,The level of expressed mRNA in the presence of chemical substance/The level of expressed mRNA in the absence of chemical substance,yeast gene YHL035C,0.6
same,The level of expressed mRNA in the presence of chemical substance/The level of expressed mRNA in the absence of chemical substance,yeast gene YHL040C,1.1
same,The level of expressed mRNA in the presence of chemical substance/The level of expressed mRNA in the absence of chemical substance,yeast gene YHL047C,1.2
same,The level of expressed mRNA in the presence of chemical substance/The level of expressed mRNA in the absence of chemical substance,yeast gene YHR026W,1.1
same,The level of expressed mRNA in the presence of chemical substance/The level of expressed mRNA in the absence of chemical substance,yeast gene YHR092C,0.2
same,The level of expressed mRNA in the presence of chemical substance/The level of expressed mRNA in the absence of chemical substance,yeast gene YHR094C,0.3
same,The level of expressed mRNA in the presence of chemical substance/The level of expressed mRNA in the absence of chemical substance,yeast gene YHR175W,0.6
same,The level of expressed mRNA in the presence of chemical substance/The level of expressed mRNA in the absence of chemical substance,yeast gene YIL006W,0.9
same,The level of expressed mRNA in the presence of chemical substance/The level of expressed mRNA in the absence of chemical substance,yeast gene YIL022W,1.1
same,The level of expressed mRNA in the presence of chemical substance/The level of expressed mRNA in the absence of chemical substance,yeast gene YIL056W,1.2
same,The level of expressed mRNA in the presence of chemical substance/The level of expressed mRNA in the absence of chemical substance,yeast gene YIL088C,1.0
same,The level of expressed mRNA in the presence of chemical substance/The level of expressed mRNA in the absence of chemical substance,yeast gene YJL034W,2.8
same,The level of expressed mRNA in the presence of chemical substance/The level of expressed mRNA in the absence of chemical substance,yeast gene YJL212C,1.1
same,The level of expressed mRNA in the presence of chemical substance/The level of expressed mRNA in the absence of chemical substance,yeast gene YJL219W,4.0
same,The level of expressed mRNA in the presence of chemical substance/The level of expressed mRNA in the absence of chemical substance,yeast gene YJR077C,0.4
same,The level of expressed mRNA in the presence of chemical substance/The level of expressed mRNA in the absence of chemical substance,yeast gene YJR106W,2.0
same,The level of expressed mRNA in the presence of chemical substance/The level of expressed mRNA in the absence of chemical substance,yeast gene YJR121W,0.8
same,The level of expressed mRNA in the presence of chemical substance/The level of expressed mRNA in the absence of chemical substance,yeast gene YKL016C,1.3
same,The level of expressed mRNA in the presence of chemical substance/The level of expressed mRNA in the absence of chemical substance,yeast gene YKL146W,4.6
same,The level of expressed mRNA in the presence of chemical substance/The level of expressed mRNA in the absence of chemical substance,yeast gene YKR039W,1.9
same,The level of expressed mRNA in the presence of chemical substance/The level of expressed mRNA in the absence of chemical substance,yeast gene YKR067W,1.6
same,The level of expressed mRNA in the presence of chemical substance/The level of expressed mRNA in the absence of chemical substance,yeast gene YKR105C,1.0
same,The level of expressed mRNA in the presence of chemical substance/The level of expressed mRNA in the absence of chemical substance,yeast gene YLL028W,1.2
same,The level of expressed mRNA in the presence of chemical substance/The level of expressed mRNA in the absence of chemical substance,yeast gene YLR081W,0.1
same,The level of expressed mRNA in the presence of chemical substance/The level of expressed mRNA in the absence of chemical substance,yeast gene YLR295C,1.4
same,The level of expressed mRNA in the presence of chemical substance/The level of expressed mRNA in the absence of chemical substance,yeast gene YLR348C,2.1
same,The level of expressed mRNA in the presence of chemical substance/The level of expressed mRNA in the absence of chemical substance,yeast gene YLR378C,1.1
same,The level of expressed mRNA in the presence of chemical substance/The level of expressed mRNA in the absence of chemical substance,yeast gene YMR011W,0.0
same,The level of expressed mRNA in the presence of chemical substance/The level of expressed mRNA in the absence of chemical substance,yeast gene YMR162C,0.7
same,The level of expressed mRNA in the presence of chemical substance/The level of expressed mRNA in the absence of chemical substance,yeast gene YMR203W,0.7
same,The level of expressed mRNA in the presence of chemical substance/The level of expressed mRNA in the absence of chemical substance,yeast gene YNL055C,1.1
same,The level of expressed mRNA in the presence of chemical substance/The level of expressed mRNA in the absence of chemical substance,yeast gene YNL259C,1.6
same,The level of expressed mRNA in the presence of chemical substance/The level of expressed mRNA in the absence of chemical substance,yeast gene YNR072W,0.7
same,The level of expressed mRNA in the presence of chemical substance/The level of expressed mRNA in the absence of chemical substance,yeast gene YOL119C,5.0
same,The level of expressed mRNA in the presence of chemical substance/The level of expressed mRNA in the absence of chemical substance,yeast gene YOL156W,2.3
same,The level of expressed mRNA in the presence of chemical substance/The level of expressed mRNA in the absence of chemical substance,yeast gene YOL163W,7.5
same,The level of expressed mRNA in the presence of chemical substance/The level of expressed mRNA in the absence of chemical substance,yeast gene YOR035C,1.3
same,The level of expressed mRNA in the presence of chemical substance/The level of expressed mRNA in the absence of chemical substance,yeast gene YOR130C,2.0
same,The level of expressed mRNA in the presence of chemical substance/The level of expressed mRNA in the absence of chemical substance,yeast gene YOR153W,3.2
same,The level of expressed mRNA in the presence of chemical substance/The level of expressed mRNA in the absence of chemical substance,yeast gene YOR270C,0.4
same,The level of expressed mRNA in the presence of chemical substance/The level of expressed mRNA in the absence of chemical substance,yeast gene YOR273C,0.6
same,The level of expressed mRNA in the presence of chemical substance/The level of expressed mRNA in the absence of chemical substance,yeast gene YOR316C,1.6
same,The level of expressed mRNA in the presence of chemical substance/The level of expressed mRNA in the absence of chemical substance,yeast gene YOR332W,1.8
same,The level of expressed mRNA in the presence of chemical substance/The level of expressed mRNA in the absence of chemical substance,yeast gene YOR348C,0.5
same,The level of expressed mRNA in the presence of chemical substance/The level of expressed mRNA in the absence of chemical substance,yeast gene YPL036W,0.1
same,The level of expressed mRNA in the presence of chemical substance/The level of expressed mRNA in the absence of chemical substance,yeast gene YPL134C,0.6
same,The level of expressed mRNA in the presence of chemical substance/The level of expressed mRNA in the absence of chemical substance,yeast gene YPL265W,0.2
same,The level of expressed mRNA in the presence of chemical substance/The level of expressed mRNA in the absence of chemical substance,yeast gene YPL271W,0.6
same,The level of expressed mRNA in the presence of chemical substance/The level of expressed mRNA in the absence of chemical substance,yeast gene YPR192W,0.7
same,The level of expressed mRNA in the presence of chemical substance/The level of expressed mRNA in the absence of chemical substance,yeast gene YPR194C,0.5
